In PubChem BioAssay AID1259407 (Chemical Carcinogenesis Research Information System (CCRIS), 2018):
Calls of active or inactive are those of the source. The rule behind the calls is not given here.

System: CCRIS mutagenicity, Ames/micronucleus/aberration tests
Experiment: CCRIS mutagenicity studies
[1] = Test System: AMES SALMONELLA TYPHIMURIUM, Strain/Indicator: TA98, Metabolic Activation: NONE, Method: PREINCUBATION
[2] = Test System: AMES SALMONELLA TYPHIMURIUM, Strain/Indicator: TA100, Metabolic Activation: NONE, Method: PREINCUBATION

O=C1CN(CCN2CC(=O)N(CN3CCOCC3)C(=O)C2)CC(=O)N1CN1CCOCC1
mutagenic call (Test System: AMES SALMONELLA TYPHIMURIUM, Strain/Indicator: TA97, Metabolic Activation: NONE, Method: PREINCUBATION): inactive; negative
mutagenic call (Test System: AMES SALMONELLA TYPHIMURIUM, Strain/Indicator: TA97, Metabolic Activation: S-9, Method: PREINCUBATION): inactive; negative
mutagenic call [1]: active; positive
mutagenic call (Test System: AMES SALMONELLA TYPHIMURIUM, Strain/Indicator: TA98, Metabolic Activation: S-9, Method: PREINCUBATION): inactive; negative
mutagenic call [2]: inactive; negative
mutagenic call (Test System: AMES SALMONELLA TYPHIMURIUM, Strain/Indicator: TA100, Metabolic Activation: S-9, Method: PREINCUBATION): inactive; negative
mutagenic call (Test System: AMES SALMONELLA TYPHIMURIUM, Strain/Indicator: TA102, Metabolic Activation: NONE, Method: PREINCUBATION): active; positive
mutagenic call (Test System: AMES SALMONELLA TYPHIMURIUM, Strain/Indicator: TA102, Metabolic Activation: S-9, Method: PREINCUBATION): inactive; negative

Cc1ccc2c(c1O)C(=O)c1ccccc1C2=O
mutagenic call [1]: inactive; negative
mutagenic call (Test System: AMES SALMONELLA TYPHIMURIUM, Strain/Indicator: TA98, Metabolic Activation: RAT, LIVER, S-9, PCB, Method: PREINCUBATION): active; positive
mutagenic call [2]: inactive; negative
mutagenic call (Test System: AMES SALMONELLA TYPHIMURIUM, Strain/Indicator: TA100, Metabolic Activation: RAT, LIVER, S-9, PCB, Method: PREINCUBATION): active; positive

COc1cc(NC(C)=O)ccc1NC(C)=O
mutagenic call (Test System: AMES SALMONELLA TYPHIMURIUM, Strain/Indicator: TA98, Metabolic Activation: NONE, Method: STANDARD PLATE): inactive; negative
mutagenic call (Test System: AMES SALMONELLA TYPHIMURIUM, Strain/Indicator: TA98, Metabolic Activation: RAT, LIVER, S-9, AROCLOR 1254, Method: STANDARD PLATE): inactive; negative

Cn1c(N)nc2ccc3ncccc3c21
mutagenic call (Test System: AMES SALMONELLA TYPHIMURIUM, Strain/Indicator: TA98, Metabolic Activation: RAT, LIVER, S-9, AROCLOR 1254, Method: PREINCUBATION): active; positive
mutagenic call (Test System: AMES SALMONELLA TYPHIMURIUM, Strain/Indicator: TA100, Metabolic Activation: RAT, LIVER, S-9, AROCLOR 1254, Method: PREINCUBATION): active; positive

CC(C)c1ccccc1
mutagenic call (End Point: In vivo micronucleus, Test System: Polychromatic erythrocytes in bone marrow, Species: Rat, Strain/Sex: F344/N / Male, Route: Intraperitoneal): active; positive (both trials)
mutagenic call (End Point: In vivo micronucleus, Test System: Polychromatic erythrocytes in peripheral blood, Species: Mouse, Strain/Sex: B6C3F1/ Female, Route: Inhalation): inactive; negative
mutagenic call (End Point: In vivo micronucleus, Test System: Polychromatic erythrocytes in peripheral blood, Species: Mouse, Strain/Sex: B6C3F1/ Male, Route: Inhalation): inactive; negative
mutagenic call (Test System: Ames Salmonella typhimurium, Strain/Indicator: TA97, Metabolic Activation: Hamster, Liver, S-9, Aroclor 1254 (10%), Method: Preincubation): inactive; negative
mutagenic call (Test System: Ames Salmonella typhimurium, Strain/Indicator: TA97, Metabolic Activation: Hamster, Liver, S-9, Aroclor 1254 (30%), Method: Preincubation): inactive; negative
mutagenic call (Test System: Ames Salmonella typhimurium, Strain/Indicator: TA97, Metabolic Activation: None, Method: Preincubation): inactive; negative
mutagenic call (Test System: Ames Salmonella typhimurium, Strain/Indicator: TA97, Metabolic Activation: Rat, Liver, S-9, Aroclor 1254 (10%), Method: Preincubation): inactive; negative
mutagenic call (Test System: Ames Salmonella typhimurium, Strain/Indicator: TA97, Metabolic Activation: Rat, Liver, S-9, Aroclor 1254 (30%), Method: Preincubation): inactive; negative
mutagenic call (Test System: Ames Salmonella typhimurium, Strain/Indicator: TA98, Metabolic Activation: Hamster, Liver, S-9, Aroclor 1254 (10%), Method: Preincubation): inactive; negative
mutagenic call (Test System: Ames Salmonella typhimurium, Strain/Indicator: TA98, Metabolic Activation: Hamster, Liver, S-9, Aroclor 1254 (30%), Method: Preincubation): inactive; negative
mutagenic call (Test System: Ames Salmonella typhimurium, Strain/Indicator: TA98, Metabolic Activation: None, Method: Preincubation): inactive; negative
mutagenic call (Test System: Ames Salmonella typhimurium, Strain/Indicator: TA98, Metabolic Activation: Rat, Liver, S-9, Aroclor 1254 (10%), Method: Preincubation): inactive; negative
mutagenic call (Test System: Ames Salmonella typhimurium, Strain/Indicator: TA98, Metabolic Activation: Rat, Liver, S-9, Aroclor 1254 (30%), Method: Preincubation): inactive; negative
mutagenic call (Test System: Ames Salmonella typhimurium, Strain/Indicator: TA100, Metabolic Activation: Hamster, Liver, S-9, Aroclor 1254 (10%), Method: Preincubation): inactive; negative
mutagenic call (Test System: Ames Salmonella typhimurium, Strain/Indicator: TA100, Metabolic Activation: Hamster, Liver, S-9, Aroclor 1254 (30%), Method: Preincubation): inactive; negative
mutagenic call (Test System: Ames Salmonella typhimurium, Strain/Indicator: TA100, Metabolic Activation: None, Method: Preincubation): inactive; negative
mutagenic call (Test System: Ames Salmonella typhimurium, Strain/Indicator: TA100, Metabolic Activation: Rat, Liver, S-9, Aroclor 1254 (10%), Method: Preincubation): inactive; negative
mutagenic call (Test System: Ames Salmonella typhimurium, Strain/Indicator: TA100, Metabolic Activation: Rat, Liver, S-9, Aroclor 1254 (30%), Method: Preincubation): inactive; negative
mutagenic call (Test System: Ames Salmonella typhimurium, Strain/Indicator: TA1535, Metabolic Activation: Hamster, Liver, S-9, Aroclor 1254 (10%), Method: Preincubation): inactive; negative
mutagenic call (Test System: Ames Salmonella typhimurium, Strain/Indicator: TA1535, Metabolic Activation: Hamster, Liver, S-9, Aroclor 1254 (30%), Method: Preincubation): inactive; negative
mutagenic call (Test System: Ames Salmonella typhimurium, Strain/Indicator: TA1535, Metabolic Activation: None, Method: Preincubation): inactive; negative
mutagenic call (Test System: Ames Salmonella typhimurium, Strain/Indicator: TA1535, Metabolic Activation: Rat, Liver, S-9, Aroclor 1254 (10%), Method: Preincubation): inactive; negative
mutagenic call (Test System: Ames Salmonella typhimurium, Strain/Indicator: TA1535, Metabolic Activation: Rat, Liver, S-9, Aroclor 1254 (30%), Method: Preincubation): inactive; negative
